Experimental data published in paper PMC3489161 (Pharmaceutical research, 2011).
Values joined by “and” are separate entries in the source; they are usually repeats but may differ in a detail not shown here. Equal values may be shown once. “Also recorded” adds a separate entry of the source.

Legend:
[1] = 14C-lapatinib distribution after intravenous dosing; assay type: in vivo, mice; settings: 10 mg/kg i.v., 30 min
[2] = 14C-lapatinib radiochemical integrity in plasma and tissues by HPLC; assay type: in vivo, mice
[3] = test system: 231-BR-HER2 lapatinib-treated lines and 231-BR-HER2 non-treated lines; assay: Cell viability; assay type: cell-based, human; settings: 8 or 10 μM lapatinib, 72 hours
[4] = test system: 231-BR-HER2 lapatinib-treated lines and 231-BR-HER2 non-treated lines; assay: Clonogenic assay of ex vivo cultures; assay type: cell-based, human; settings: 4 μM lapatinib, stained on day 12
[5] = test system: HER2; assay: Western blot of HER2 expression in ex vivo cultures; assay type: cell-based, human; settings: 100 mg/kg p.o. twice daily for 24 days
[6] = female, NuNu, mouse, in vivo
[7] = due to active efflux transport at the BBB; cited from earlier work
[8] = test system: 231-BR-HER2; settings: read-out: IC50 for inhibition of 231-BR-HER2 proliferation in vitro; cited from earlier work
[9] = test system: brain metastases of HER2+ breast cancer; settings: monotherapy; cited from earlier work
[10] = test system: HER2+ brain metastases; settings: cited from earlier work
[11] = mice; cited from earlier work
[12] = cited from earlier work

Average brain metastasis concentration less than in peripheral tissues [1]: 1-2 orders of magnitude | Plasma 14C tracer confirmed as intact 14C-lapatinib ([2]; 30 min after 10 mg/kg i.v.): > 98% | Tracer intact in plasma and tissues by HPLC ([2]; 2 hours after oral administration, 100 mg/kg): > 92% | Concentration in some brain metastases as % of that in peripheral lesions [6]: ~50% | Share of brain metastases with elevated 14C-lapatinib delivery [6]: > 85% | Calculated % dose to brain ([6]; po, 100 mg/kg): 0.0025%
SMILES: CS(=O)(=O)CCNCc1ccc(-c2ccc3ncnc(Nc4ccc(OCc5cccc(F)c5)c(Cl)c4)c3c2)o1 [lapatinib, N-{3-chloro-4-[(3-fluorobenzyl)oxy]phenyl}-6-[5-({[2-(methylsulfonyl)ethyl]amino}methyl)-2-furyl]-4-quinazolinamine]
Sensitivity of ex vivo cell lines to lapatinib, viability by MTT [3]: sensitive to lapatinib inhibition; also recorded: remain sensitive to lapatinib in vitro | Inhibitory effect in clonogenic assays [4]: comparable between lapatinib- and vehicle-treated cultures | HER2 expression throughout in vivo treatment and ex vivo culture [5]: maintained | Brain uptake as % of plasma [7]: < 10% | IC50 [8]: 8 µM | Patients achieving an objective response [9]: 6% | Patients experiencing a >20% reduction in lesion volume [9]: 21% | Reduction in formation/number of large brain metastases ([10]; mice, same dose and tumor model): ~50% and 50-53% | Number of micrometastases ([10]; mice): no change | Extent of phosphorylated HER2 staining within HER2+ brain metastases ([10]; treatment initiated early): decreased | Plasma half-life [11]: 4 to 6 h | Volume of distribution [12]: 9.5 L/kg
